What follows are molecules tested against PolQ (1-899) (Homo sapiens (Human), UniProt O75417) (assay: PolQ ATPase assay (ADP-Glo)). Conditions: not given.
PolQ (1-899), sequence (O75417 1-899): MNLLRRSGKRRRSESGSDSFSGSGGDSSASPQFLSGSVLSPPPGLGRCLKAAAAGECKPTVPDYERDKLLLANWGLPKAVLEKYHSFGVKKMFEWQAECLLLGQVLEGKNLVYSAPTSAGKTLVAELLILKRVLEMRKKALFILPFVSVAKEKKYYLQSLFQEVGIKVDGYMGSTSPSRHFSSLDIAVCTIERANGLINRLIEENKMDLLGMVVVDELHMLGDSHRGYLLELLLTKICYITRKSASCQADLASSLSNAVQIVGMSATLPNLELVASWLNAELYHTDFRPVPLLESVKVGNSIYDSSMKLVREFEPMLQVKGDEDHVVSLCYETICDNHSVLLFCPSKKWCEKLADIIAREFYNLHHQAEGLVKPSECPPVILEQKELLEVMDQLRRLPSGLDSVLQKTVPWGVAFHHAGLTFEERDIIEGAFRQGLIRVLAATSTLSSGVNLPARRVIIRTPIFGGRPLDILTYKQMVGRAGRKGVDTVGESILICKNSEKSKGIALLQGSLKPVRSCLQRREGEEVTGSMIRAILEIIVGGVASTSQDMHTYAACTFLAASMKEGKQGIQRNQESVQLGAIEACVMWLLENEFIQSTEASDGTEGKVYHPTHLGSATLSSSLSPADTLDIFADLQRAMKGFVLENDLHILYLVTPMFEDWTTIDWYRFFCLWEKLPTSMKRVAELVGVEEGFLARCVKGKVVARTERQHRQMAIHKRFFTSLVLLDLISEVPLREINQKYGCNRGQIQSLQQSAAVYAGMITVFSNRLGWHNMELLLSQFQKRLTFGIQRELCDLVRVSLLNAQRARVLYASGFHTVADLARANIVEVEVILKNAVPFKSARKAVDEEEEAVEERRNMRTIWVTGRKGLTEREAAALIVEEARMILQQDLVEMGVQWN
Type: biochemical
Procedure: The ability of the compounds of the present disclosure to inhibit ATPase activity of PolQ (1-899) was determined using the assay described below.
PolQ ATPase activity was determined by ADP-Glo assay. 10-point dilution series of compounds were used in a 384 well format for the inhibition assays. PolQ (1-899) (1 nM) in assay buffer (20 mM Tris HCl (pH 8.0), 80 mM KCl, 10 mM MgCl2, 1 mM DTT, 0.01% BSA, 0.01% Tween, 5% glycerol) was transferred to the test wells (20 uL), except the low control wells (20 μL of assay buffer was added to the low control wells). The plate was then incubated at room temperature for 30 min. An equal volume (20 μL) of 100 μM ATP, 150 nM ssDNA containing 50 thymine bases in assay buffer was added to all the test wells. The plates were covered and left to incubate for 60 min. at room temperature before the addition of the ADP Glo detection reagents. After 60 min. incubation, transfer 5 μL reaction mix to another 384-well plate and add 5 μL ADP Glo and plates incubated for 60 min. before addition of 10 μL kinase detection reagent. After the addition of the kinase detection reagent, the plates were covered and incubated for 60 min. and read luminescence on Envision
Percent inhibition was calculated as follows:
[formula] • where “Max” is the high control (DMSO) and “Min” is the no enzyme control.
IC50 values were calculated using a four-parameter logistic curve fit using the following formula: […]
IC50 values were determined by fitting the data to the standard 4 parameters with Hill Slope using GraphPad Prism software.
Work on `COc1ccc(Cl)c(F)c1-c1cc(C)ncc1C(=O)Nc1nn(CC(=O)N2CC[C@@H](N(C)C)C2)c(=O)s1` [Example 9, 4-(3-Chloro-2-fluoro-6-methoxyphenyl)-N-(4-(2-((R)-3-(dimethylamino)pyrrolidin-1-yl)-2-oxoethyl)-5-oxo-4,5-dihydro-1,3,4-thiadiazol-2-yl)-6-methylnicotinamide] yielded an IC50 of 10 to 100 nM. Work on `COc1ccc(Cl)c(F)c1-c1cc(C)ncc1C(=O)Nc1nn(CC(=O)N2CC[C@H](N(C)C)C2)c(=O)s1` [Example 10, 4-(3-Chloro-2-fluoro-6-methoxyphenyl)-N-(4-(2-((S)-3-(dimethylamino)pyrrolidin-1-yl)-2-oxoethyl)-5-oxo-4,5-dihydro-1,3,4-thiadiazol-2-yl)-6-methylnicotinamide] yielded an IC50 of 10 to 100 nM. In the case of `COc1ccccc1-c1cc(C)ncc1C(=O)Nc1nn(CCCCO)c(=O)s1` [Example 24, N-(4-(4-Hydroxybutyl)-5-oxo-4,5-dihydro-1,3,4-thiadiazol-2-yl)-4-(2-methoxyphenyl)-6-methylnicotinamide], the IC50 is reported as 10 to 100 nM. `COc1cnc(Cl)cc1-c1cc(C)ncc1C(=O)Nc1nn(CCCCO)c(=O)s1` [Example 29, 2′-Chloro-N-(4-(4-hydroxybutyl)-5-oxo-4,5-dihydro-1,3,4-thiadiazol-2-yl)-5′-methoxy-6-methyl-[4,4′-bipyridine]-3-carboxamide] gave an IC50 of 10 to 100 nM.

Same assay, conditions: inhibition of ATPase activity of PolQ (1-899), 1 nM enzyme, 100 μM ATP, 150 nM ssDNA, ADP-Glo
With `COCCn1nc(NC(=O)c2cnc(C)cc2-c2c(OC)ccc(Cl)c2F)sc1=O` [Example 1, 4-(3-Chloro-2-fluoro-6-methoxyphenyl)-N-(4-(2-methoxyethyl)-5-oxo-4,5-dihydro-1,3,4-thiadiazol-2-yl)-6-methylnicotinamide] the IC50 was < 10 nM. In the case of `COc1ccc(Cl)c(F)c1-c1cc(C)ncc1C(=O)Nc1nn(CC(F)(F)F)c(=O)s1` [Example 2, 4-(3-Chloro-2-fluoro-6-methoxyphenyl)-6-methyl-N-(5-oxo-4-(2,2,2-trifluoroethyl)-4,5-dihydro-1,3,4-thiadiazol-2-yl)nicotinamide], the IC50 is reported as < 10 nM. `CCn1nc(NC(=O)c2cnc(C)cc2-c2c(OC)ccc(Cl)c2F)sc1=O` [Example 3, 4-(3-Chloro-2-fluoro-6-methoxyphenyl)-N-(4-ethyl-5-oxo-4,5-dihydro-1,3,4-thiadiazol-2-yl)-6-methylnicotinamide] was tested, and the IC50 was < 10 nM. For `COCCCn1nc(NC(=O)c2cnc(C)cc2-c2c(OC)ccc(Cl)c2F)sc1=O` [Example 4, 4-(3-Chloro-2-fluoro-6-methoxyphenyl)-N-(4-(3-methoxypropyl)-5-oxo-4,5-dihydro-1,3,4-thiadiazol-2-yl)-6-methylnicotinamide], the IC50 was < 10 nM. With `COCCCCn1nc(NC(=O)c2cnc(C)cc2-c2c(OC)ccc(Cl)c2F)sc1=O` [Example 5, 4-(3-Chloro-2-fluoro-6-methoxyphenyl)-N-(4-(4-methoxybutyl)-5-oxo-4,5-dihydro-1,3,4-thiadiazol-2-yl)-6-methylnicotinamide] the IC50 was < 10 nM. For `COc1ccc(Cl)c(F)c1-c1cc(C)ncc1C(=O)Nc1nn(CCO)c(=O)s1` [Example 6, 4-(3-Chloro-2-fluoro-6-methoxyphenyl)-N-(4-(2-hydroxyethyl)-5-oxo-4,5-dihydro-1,3,4-thiadiazol-2-yl)-6-methylnicotinamide], the IC50 was < 10 nM. In the case of `COc1ccc(Cl)c(F)c1-c1cc(C)ncc1C(=O)Nc1nn(CCCO)c(=O)s1` [Example 7, 4-(3-Chloro-2-fluoro-6-methoxyphenyl)-N-(4-(3-hydroxypropyl)-5-oxo-4,5-dihydro-1,3,4-thiadiazol-2-yl)-6-methylnicotinamide], the IC50 is reported as < 10 nM. `COc1ccc(Cl)c(F)c1-c1cc(C)ncc1C(=O)Nc1nn(CC(=O)O)c(=O)s1` [Example 8, 2-(5-(4-(3-Chloro-2-fluoro-6-methoxyphenyl)-6-methylnicotinamido)-2-oxo-1,3,4-thiadiazol-3(2H)-yl)acetic acid] was tested, and the IC50 was < 10 nM. For `COc1ccc(Cl)c(F)c1-c1cc(C)ncc1C(=O)Nc1nn(CCC#N)c(=O)s1` [Example 11, 4-(3-Chloro-2-fluoro-6-methoxyphenyl)-N-(4-(2-cyanoethyl)-5-oxo-4,5-dihydro-1,3,4-thiadiazol-2-yl)-6-methylnicotinamide], the IC50 was < 10 nM. For `COc1ccc(Cl)c(F)c1-c1cc(C)ncc1C(=O)Nc1nn(CCCC#N)c(=O)s1` [Example 12, 4-(3-Chloro-2-fluoro-6-methoxyphenyl)-N-(4-(3-cyanopropyl)-5-oxo-4,5-dihydro-1,3,4-thiadiazol-2-yl)-6-methylnicotinamide], the IC50 was < 10 nM. For `COc1ccc(C(F)(F)F)c(F)c1-c1cc(C)ncc1C(=O)Nc1nn(CCCO)c(=O)s1` [Example 13, 4-(2-Fluoro-6-methoxy-3-(trifluoromethyl)phenyl)-N-(4-(3-hydroxypropyl)-5-oxo-4,5-dihydro-1,3,4-thiadiazol-2-yl)-6-methylnicotinamide], the IC50 was < 10 nM. `COc1ccc(Cl)c(F)c1-c1cc(C)ncc1C(=O)Nc1nn(CCCCO)c(=O)s1` [Example 14, 4-(3-Chloro-2-fluoro-6-methoxyphenyl)-N-(4-(4-hydroxybutyl)-5-oxo-4,5-dihydro-1,3,4-thiadiazol-2-yl)-6-methylnicotinamide] was tested, and the IC50 was < 10 nM. With `COc1ccc(Cl)c(F)c1-c1cc(C)ncc1C(=O)Nc1nn(CCC(C)(C)O)c(=O)s1` [Example 15, 4-(3-Chloro-2-fluoro-6-methoxyphenyl)-N-(4-(3-hydroxy-3-methylbutyl)-5-oxo-4,5-dihydro-1,3,4-thiadiazol-2-yl)-6-methylnicotinamide] the IC50 was < 10 nM. In the case of `COc1ccc(Cl)c(F)c1-c1cc(C)ncc1C(=O)Nc1nn(CCC(C)O)c(=O)s1` (stereo not shown) [Example 16, 4-(3-Chloro-2-fluoro-6-methoxyphenyl)-N-(4-(3-hydroxybutyl)-5-oxo-4,5-dihydro-1,3,4-thiadiazol-2-yl)-6-methylnicotinamide], the IC50 is reported as < 10 nM. `COc1ccc(Cl)c(F)c1-c1cc(C)ncc1C(=O)Nc1nn(CC2CC(O)C2)c(=O)s1` (stereo not shown) [Example 17, 4-(3-Chloro-2-fluoro-6-methoxyphenyl)-N-(4-((3-hydroxycyclobutyl)methyl)-5-oxo-4,5-dihydro-1,3,4-thiadiazol-2-yl)-6-methylnicotinamide] was tested, and the IC50 was < 10 nM. For `COc1ccc(Cl)c(F)c1-c1cc(C)ncc1C(=O)Nc1nn(CCn2cccn2)c(=O)s1` [Example 18, N-(4-(2-(1H-pyrazol-1-yl)ethyl)-5-oxo-4,5-dihydro-1,3,4-thiadiazol-2-yl)-4-(3-chloro-2-fluoro-6-methoxyphenyl)-6-methylnicotinamide], the IC50 was < 10 nM. For `COc1ccc(Cl)c(F)c1-c1cc(C)ncc1C(=O)Nc1nn(CC(C)O)c(=O)s1` (stereo not shown) [Example 20, 4-(3-Chloro-2-fluoro-6-methoxyphenyl)-N-(4-(2-hydroxypropyl)-5-oxo-4,5-dihydro-1,3,4-thiadiazol-2-yl)-6-methylnicotinamide], the IC50 was < 10 nM. In the case of `CCC(O)Cn1nc(NC(=O)c2cnc(C)cc2-c2c(OC)ccc(Cl)c2F)sc1=O` (stereo not shown) [Example 21, 4-(3-Chloro-2-fluoro-6-methoxyphenyl)-N-(4-(2-hydroxybutyl)-5-oxo-4,5-dihydro-1,3,4-thiadiazol-2-yl)-6-methylnicotinamide], the IC50 is reported as < 10 nM. `COc1ccc(Cl)c(F)c1-c1cnccc1C(=O)Nc1nn(CCCCO)c(=O)s1` [Example 22, 3-(3-Chloro-2-fluoro-6-methoxyphenyl)-N-(4-(4-hydroxybutyl)-5-oxo-4,5-dihydro-1,3,4-thiadiazol-2-yl)isonicotinamide] was tested, and the IC50 was < 10 nM. `COc1ccccc1-n1cncc1C(=O)Nc1nn(CCCCO)c(=O)s1` [Example 23, N-(4-(4-Hydroxybutyl)-5-oxo-4,5-dihydro-1,3,4-thiadiazol-2-yl)-1-(2-methoxyphenyl)-1H-imidazole-5-carboxamide] was tested, and the IC50 was > 500 nM. With `COc1ccc(Cl)cc1-c1cc(C)ncc1C(=O)Nc1nn(CCCCO)c(=O)s1` [Example 25, 4-(5-Chloro-2-methoxyphenyl)-N-(4-(4-hydroxybutyl)-5-oxo-4,5-dihydro-1,3,4-thiadiazol-2-yl)-6-methylnicotinamide] the IC50 was < 10 nM. In the case of `COc1ccc(C(F)(F)F)c(F)c1-c1cc(C)ncc1C(=O)Nc1nn(CCCCO)c(=O)s1` [Example 27, 4-(2-Fluoro-6-methoxy-3-(trifluoromethyl)phenyl)-N-(4-(4-hydroxybutyl)-5-oxo-4,5-dihydro-1,3,4-thiadiazol-2-yl)-6-methylnicotinamide], the IC50 is reported as < 10 nM. In the case of `COc1ccc(C)c(F)c1-c1cc(C)ncc1C(=O)Nc1nn(CCCCO)c(=O)s1` [Example 28, 4-(2-Fluoro-6-methoxy-3-methylphenyl)-N-(4-(4-hydroxybutyl)-5-oxo-4,5-dihydro-1,3,4-thiadiazol-2-yl)-6-methylnicotinamide], the IC50 is reported as < 10 nM. With `COc1ccc(Cl)c(F)c1-c1cc(-c2ccn(C)n2)ncc1C(=O)Nc1nn(CCCCO)c(=O)s1` [Example 30, 4-(3-Chloro-2-fluoro-6-methoxyphenyl)-N-(4-(4-hydroxybutyl)-5-oxo-4,5-dihydro-1,3,4-thiadiazol-2-yl)-6-(1-methyl-1H-pyrazol-3-yl)nicotinamide] the IC50 was < 10 nM.

From patent US20260034113A1, “THIADIAZOLONE DERIVATIVES, COMPOSITIONS AND USES THEREOF” (Danatlas Pharmaceuticals Co., Ltd., priority 2023, published 2026)
